Reference: patent publication US20260210856A1, “CONJUGATED OLIGOELECTROLYTES WITH BORON-DIPYRROMETHENE CORES AND METHODS THEREOF” (National University of Singapore, priority 2022, published 2026)

Columns and labels:
[1] = Fluorescence lifetime in water:glycerol mixtures of varying viscosities; format: physicochemical; settings: 590 nm, 20° C.
Experimental: The BODIPY unit of COE-BYs are sensitive to the viscosity of its environment. As an example, COE-BYPhMe was added to mixtures of water and glycerol at various ratios. The viscosity of the local environment has the most significant effect on its emission intensity and emission lifetime. The plot of log τ (fluorescence lifetime) versus log η (solvent viscosity) is fitted by a straight line.
We examined the sensitivity of COE-BYs to changes in viscosity in solution by using different glycerol and water mixtures. The viscosities of the solutions were increased through increases of the glycerol fraction. Of interest was the relationship between the viscosity (η) and the amplitude-weighted average emission lifetime (τw), which is defined by
Each individual lifetime component Tr is normalized to the corresponding amplitude (Ai) derived from fitting the emission decay to a multiexponential model, where p is the total number of exponents (1 or 2). […] It is known that increases in environmental viscosity restricts the rotation of the phenyl rings surrounding the BODIPY unit, which diminishes non-radiative decay pathways of the excited state, resulting in longer fluorescence lifetimes. […] Due to the low emission, we could not accurately extract emission lifetimes from the fluorescence decays of COE-BYPhCN and COE-BYPhNO.

A549 cells = experiment: Uptake after pretreatment with endocytic inhibitors, flow cytometry; format: cell-based; settings: 1 μM dye, 3 h
Experimental: (§1) To further understand the internalization of COE-BYPhOC4, A549 and HeLa cells were pretreated with endocytic inhibitors including pharmacological treatments genistein (caveolae-dependent), chlorpromazine (clathrin-dependent) and low temperature (energy-dependent). Cells were then stained by treatment with 1 μM COE-BYPhOC4 and the endocytosis inhibition efficiency was characterized by flow cytometry and fluorescence confocal imaging. […] The confocal images in FIG. 13C provide additional confirmation of this endocytosis pathway. Fluorescence signals are only observed on the plasma membranes in the chlorpromazine pretreated group, while COE-BYPhOC4 readily underwent endocytosis and appeared as red vesicular puncta in the other three groups. Successful plasma membrane staining similar to FIG. 12A also provides evidence of insertion into the membrane prior to endocytosis and subsequent trafficking together with other lipid molecules, as opposed to being directly engulfed within intracellular vesicles. This feature enables the dye to follow the endosomal pathway throughout the maturation process beginning from the plasma membrane, as opposed to commonly employed pH-dependent methods to control accumulation within vesicle subtypes.

HeLa cells [2] = experiment: as above; format: cell-based; settings: 1 μM dye, 3 h
Experimental: as §1

HeLa cells [3] = experiment: Membrane tension imaging during endocytosis, 2P-FLIM; format: cell-based
Experimental: We thus stained HeLa cells with COE-BYPhOC4 for different lengths of time and captured 2P-FLIM images of the cell state at specific intervals. For these studies, we correlated the time-dependent colocalization experiments with 2P-FLIM data to link τw with the identity of the vesicles. […] Time dependent colocalization with Rab5a allowed us a means of assigning the identities of the vesicles. At 2 hours, the blue and green vesicles in FLIM image were identified as early endosomes. Upon increasing staining time to 4 h, all COE-BYPhOC4 entered the cells with a further increase in τw, leading to a main yellow color. […] As previously analyzed from the colocalization images in FIG. 12, all the COEs resided exclusively within late endosomes at this point in time. […] This observation is potentially reflective of the different domains in endosomes.

HeLa cells [4] = experiment: Time-dependent colocalization with organelle probes, confocal microscopy; format: cell-based
Experimental: (b) Confocal image of A549 cells stained with 1 μM COE-BYPhOC4. Confocal images of (c) A549 and (d) HeLa cells. Cells were prestained with COE-BYPhOC4 (red) for 4 hours and then stained with commercial plasma membrane dye CellMask Deep Red (blue and green, respectively) for 5 min. (e) Confocal images for time-dependent colocalization experiments. HeLa cells were stained with 1 μM COE-BYPhOC4 with different incubation times (2 h, 8 h, 24 h and 48 h). Cells were imaged in multiple channels to collect fluorescence signals from COE-BYPhOC4 and other commercial organelle dyes. Red: COE-BYPhOC4; the first column green: CellLight Early Endosome-GFP; the second column green: CellLight Late Endosome-GFP; the third column deep blue: CellLight Lysosomes-GFP; the fourth column sky blue: HCS LipidTOX™ Deep Red; the fifth column yellow: MitoTracker Deep Red. Scale bar: 5 μm.
Insights into the intracellular location of COE-BYPhOC4 at different time points were sought through colocalization experiments with a panel of common commercial organelle probes (CellLight Early Endosome-GFP, CellLight Late Endosome-GFP, CellLight Lysosomes-GFP, LipidTOX™ Deep Red, and MitoTracker Deep Red). To label the vesicles in the endocytic pathway with high specificity and avoid dye translocation associated with alkalinizing effects and equilibrium shifts after extended durations, we elected to use GFP-tagged markers that are definitive for each vesicle subtype, namely Rab5a, Rab7a, and Lamp-1 for early endosomes, late endosomes, and lysosomes respectively. […] Subsequently at 8 hours, the highest overlay can be observed from COEs and the late endosome marker. Prolonged incubation beyond this point further increased the degree of colocalization, from 0.73 at 8 hours to 0.95 at 48 h.

[5] = Two-photon absorption cross section; format: physicochemical; settings: intercalated into SUVs
From the text: Dynamic biological processes in live cells often take place at a rapid time scale, necessitating rapid image acquisition. For 2P-FLIM applications, this is especially relevant since a significant photon count is required to ensure accurate decay statistics and lifetime values. Two-photon imaging provides access to the NIR-II window for excitation (1000-1700 nm), minimizing photodamage and eliminating out of focus noise. As such, dye brightness plays a key role in enabling high-quality imaging. We thus evaluated their two-photon absorption cross-section of the COE-BY series. […] These properties will become relevant when determining the utility of COE-BYPhOC4 to image the endocytosis pathway and different response of living cells.

HeLa cells [6] = experiment: Brightness of stained HeLa cells by flow cytometry; format: cell-based; settings: FIG. 11
From the text: To evaluate their potential use as fluorescent probes for intracellular imaging, we first analyzed the brightness of each COE-BY molecule when used to stain HeLa cells using flow cytometry. As flow cytometry reports the fluorescence intensity per cell, this analysis would enable simultaneous evaluation of the cellular uptake and brightness. […] Based on these parameters, COE-BYPhOC4 was chosen for further in vitro imaging studies.

Question: Which results are given for `CCCCOc1ccc(C2=C3C(C)=C(c4ccc(/C=C/c5cc(OCCCCCC[N+](C)(C)C)c(OCCCCCC[N+](C)(C)C)c(OCCCCCC[N+](C)(C)C)c5)cc4)C(C)=[N+]3[B-](F)(F)n3c(C)c(-c4ccc(/C=C/c5cc(OCCCCCC[N+](C)(C)C)c(OCCCCCC[N+](C)(C)C)c(OCCCCCC[N+](C)(C)C)c5)cc4)c(C)c32)cc1.[I-].[I-].[I-].[I-].[I-].[I-]` [COE-BYPhOC4]?
Answer: amplitude-weighted average emission lifetime τw ([1]; solution viscosity 22.5 cP): 0.5 ns; amplitude-weighted average emission lifetime τw ([1]; solution viscosity 939 cP): 1.2 ns; dye fluorescence intensity relative to the untreated group (A549 cells; A549, chlorpromazine pretreatment): 14%; dye fluorescence intensity relative to the untreated group (A549 cells; A549, genistein pretreatment): 95%; dye fluorescence intensity relative to the untreated group (HeLa cells [2]; chlorpromazine pretreatment): 21%; dye fluorescence intensity relative to the untreated group (HeLa cells [2]; genistein pretreatment): 92%; τw (HeLa cells [3]; 8 to 24 h, red-orange vesicles): 2.7-3.0 ns; τw (HeLa cells [3]; 0.5 h, plasma membranes): ≈ 1.5 ns; τw (HeLa cells [3]; 0.5 h, regions beginning to be internalized): ≈ 1.0 ns; τw (HeLa cells [3]; vesicles taken up earlier (green)): 2.0-2.4 ns; degree of colocalization with late endosome marker (HeLa cells [4]; 1 μM, 8 hours): 0.73; degree of colocalization with late endosome marker (HeLa cells [4]; 1 μM, 48 h): 0.95; Pearson's correlation coefficient value (R) relative to GFP-tagged Rab5a (early endosome) (HeLa cells [4]; 1 μM, incubation 2 h): 0.71; colocalization with lipid droplets and mitochondria markers (HeLa cells [4]; all timepoints): poor colocalization with lipid droplets and mitochondria markers at all timepoints; two photon absorption cross section area [5]: 486 GM; brightness of stained cells (HeLa cells [6]): highest brightness
